Laboratory results taken from patent US5304556A, “Benza-triazinone derivatives” (Mitsubishi Kasei Corporation, priority 1991, dated 1994).
Read-outs that look alike come from different tables or passages of the source.

What was measured:
[1] = Kokai Sho 60-132928, Table 2; cited from earlier work
[2] = tested on: Rabbit platelet aggregation induced by PAF; assay: Rabbit platelet aggregation inhibitory activity (PAF-induced); type: cell-based, rabbit (New Zealand white); conditions: Oryctolagus cuniculus, read-out: Rabbit Platelet Aggregation Inhibitory activity IC50
Description: To 0.9 volume of blood collected from jugular vein of a New Zealand white male rabbit weighing from 2.5 to 3.5 kg was added 0.1 volume of 3.8% aqueous sodium citrate, and the mixture was centrifuged at 110 xg for 15 minutes to give PRP ([…]). Assay of platelet aggregation induced by PAF was effected using 4 channels aggregometer (Manufacturer: Nicoh Bioscience Co.) according to Bohn et al, Turbidimetry [J. Physiology, Vol. 168, p.178, 1963]. […] The final concentration of PAF in the reaction mixture was adjusted to 10^-10 M.

[3] = tested on: mouse death due to shock induced by PAF; assay: Activity to mouse death due to shock induced by PAF; type: in vivo; conditions: male ICR mouse; oral 1 hour prior to i.v. 100 μg/kg PAF; survival at 24 hours
Description: Test was effected according to Young et al. method, Prostaglandins, Vol. 30, p.545, 1985. Lethal test was effected by treating starved male ICR mouse weighing from 25 g to 30 g with PAF without anesthesia. Test Compound was orally administered 1 hour prior to tail intravenous administration of 100 μg/kg of PAF. Survival rate of the test animal was examined 24 hours after intravenous administration of PAF.

[4] = tested on: contraction of the respiratory tract due to PAF; assay: Activity to contraction of the respiratory tract of guinea pig due to PAF; type: in vivo, guinea pig (Hartley); conditions: Cavia porcellus, read-out: Activity to Contraction of the Respiratory Tract of Guinea Pig due to PAF ED50
Description: Hartley male guinea pigs weighing from 350 g to 500 g were anesthetized by intraperitoneal administration of 50 mg/kg of sodium pentobarbital. Contraction of the respiratory tract was measured by inserting a cannula into trachea and measuring under artificial ventilation according to Conzet et al, Arch. […] 71. Test compound was orally administered 1 hour prior to intravenous administration of 0.3 μg/kg of PAF.

Acute toxicity = conditions: in vivo; male and female SD (CD) rat; oral, 0.5% aqueous CMC-Na suspension; observed 14 days
[5] = tested on: thromboxane synthetase enzyme; conditions: Kokai Sho 63-316778, Table 1; cited from earlier work
[6] = rabbit PRP, PAF final concentration 10^-10 M
[7] = Hartley male guinea pig, oral 1 hour prior to i.v. 0.3 μg/kg PAF

Row | Structure (SMILES) | ED50 [3] [mg/kg] | IC50 [2, 6] [nM] | other results
1 | CN1C(=O)c2ccc(Oc3ccc(C(F)(F)F)cc3Cl)cc2C1=O | – | – | herbicidal activity [1]: shows herbicidal activity
2 | Cc1nnc2n1-c1sc(CCC(=O)N3CCOCC3)cc1C(c1ccccc1Cl)=NC2 [WEB2086, reference compound] | 1 | – | IC50 [2]: 40 nM; ED50 ([4]; po, 1 h): 0.15 mg/kg
3 | O=c1c2cc(Oc3ccc(Cl)cc3)ccc2nnn1Cc1cccnc1 [compound 2, 6-(4-chlorophenoxy)-3-(3-pyridylmethyl)-1,2,3-benzotriazin-4 (3H)-one] | 2.1 | 26 | ED50 [4, 7]: 0.15 mg/kg; LD50 at 336 h (Acute toxicity): > 2000 mg/kg
4 | O=C1c2ccc(Oc3ccc(Cl)cc3)cc2C(=O)N1Cc1cccnc1 [compound 25, 5-(4-chlorophenoxy)-2-(3-pyridylmethyl)-1H-isoindole-1,3 (2H)-dione] | 1.3 | 10 | ED50 [4, 7]: 0.14 mg/kg; LD50 at 336 h (Acute toxicity): > 2000 mg/kg
5 | O=C(c1ccc(Cl)cc1)c1ccc2c(c1)C(=O)N(Cc1cccnc1)C2=O [compound 45, 5-(4-chlorobenzoyl)-2-(3-pyridylmethyl)-1H-isoindole-1,3 (2H)-dione] | 0.6 | 19 | –
6 | O=C1c2ccc(-c3cccc4ccccc34)cc2C(=O)N1Cc1cccnc1 [compound 50, 5-(1-naphthyl)-2-(3-pyridylmethyl)-1H-isoindole-1,3 (2H)-dione] | 0.32 | 24 | –
7 | O=C1c2ccc(N(c3ccc(Cl)cc3)c3ccc(Cl)cc3)cc2C(=O)N1Cc1cccnc1 [compound 60, 5-[N,N-bis (4-chlorophenyl)amino]-2-(3-pyridylmethyl)-1H-isoindole-1,3(2H)-dione] | 0.019 | 2.6 | ED50 [4, 7]: 0.019 mg/kg; LD50 at 336 h (Acute toxicity): > 2000 mg/kg
8 | N#Cc1ccc(N(c2ccc(C#N)cc2)c2ccc3c(c2)C(=O)N(Cc2cccnc2)C3=O)cc1 [compound 63, 5-[N,N-bis (4-cyanophenyl)amino]-2-(3-pyridylmethyl)-1H-isoindole-1,3 (2H)-dione] | 0.007 | 1.7 | ED50 [4, 7]: 0.006 mg/kg; LD50 at 336 h (Acute toxicity): > 2000 mg/kg
9 | O=C1c2ccc(C(c3ccc(Cl)cc3)c3ccc(Cl)cc3)cc2C(=O)N1Cc1cccnc1 [compound 68, 5-[bis (4-chlorophenyl)methyl]-2-(3-pyridylmethyl)-1H-isoindole-1,3 (2H)-dione] | – | 1.8 | –
10 | O=C1c2cccc(Oc3ccc(Cl)cc3)c2C(=O)N1Cc1cccnc1 [compound 72, 4-(4-chlorophenoxy)-2-(3-pyridylmethyl)-1H-isoindole-1,3 (2H)-dione] | 0.4 | 32 | –
11 | O=C1c2cc(Oc3ccc(Cl)cc3)ccc2CCN1Cc1cccnc1 [compound 84, 7-(4-chlorophenoxy)-3,4-dihydro-2-(3-pyridylmethyl)-1 (2H)-isoquinolinone] | – | 10 | –
12 | O=C1c2cc(Oc3ccc(F)cc3)ccc2CN1Cc1cccnc1 [compound 125, 2,3-dihydro-6-(4-fluorophenoxy)-2-(3-pyridylmethyl)-1H-isoindole-1-one] | – | 36 | –
13 | O=c1c2cc(Oc3ccc(Cl)cc3)ccc2ccn1Cc1cccnc1 [compound 128, 7-(4-chlorophenoxy)-2-(3-pyridylmethyl)-1 (2H)-isoquinolinone] | – | 18 | –
14 | O=c1c2cc(Oc3ccc(Cl)cc3)ccc2ccn1-c1cccnc1 [compound 130, 7-(4-chlorophenoxy)-2-(3-pyridyl)-1 (2H)-isoquinolinone] | 0.018 | – | –
15 | O=c1c2cc(Oc3ccc(Cl)cc3)ccc2ncn1Cc1cccnc1 [compound 131, 6-(4-chlorophenoxy)-3-(3-pyridylmethyl)-4 (3H)-quinazolinone] | – | 31 | –
16 | O=c1c2cc(Cl)ccc2nnn1CCCn1ccnc1 [formula (A)] | – | – | thromboxane synthetase enzyme inhibition [5]: inhibits thromboxane synthetase enzyme
